Here are results for 14 compounds from patent US8822452B2, “Inhibitor compounds of 11-beta-hydroxysteroid dehydrogenase type 1” (Laboratorios Salvat, S.A., priority 2009, dated 2014).

The target of assay [1] is T1, 11-beta-HSD2 (Homo sapiens, UniProt P80365).
T1 construct: expressed in transfected cells; host or cells: HEK-293 cells, stably transfected; microsome preparation
T1 sequence (P80365 1-405): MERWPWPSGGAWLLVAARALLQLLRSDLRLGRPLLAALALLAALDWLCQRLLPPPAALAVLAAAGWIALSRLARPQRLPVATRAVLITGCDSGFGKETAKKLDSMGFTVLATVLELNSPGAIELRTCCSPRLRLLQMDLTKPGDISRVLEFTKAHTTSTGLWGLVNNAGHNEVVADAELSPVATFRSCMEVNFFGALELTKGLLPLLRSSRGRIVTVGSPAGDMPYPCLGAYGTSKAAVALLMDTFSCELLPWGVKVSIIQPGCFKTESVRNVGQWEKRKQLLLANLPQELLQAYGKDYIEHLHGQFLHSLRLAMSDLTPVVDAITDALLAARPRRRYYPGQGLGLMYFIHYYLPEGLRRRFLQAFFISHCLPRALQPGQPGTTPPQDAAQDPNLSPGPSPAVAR
Nature of the assay: Inhibitory activity of 11-beta-HSD2 in the microsomal fraction of transfected HEK293 cells (SPA, [3H]-cortisol). Conditions: for inhibition at 10 µM: microsomes of HEK-293 cells transfected with 11-beta-HSD2. It counts as biochemical. How it is done: Determination of the Inhibitory Activity of 11-Beta-HSD2 in the Microsomal Fraction of Transfected HEK293 Cells
59 μL of the reaction mixture were added to a 96-well plate. This contained 1 mM NAD^+ and 80 μg/mL of the microsome preparations of HEK-293 cells stably transfected with the 11-beta-HSD2 clone, dissolved in assay buffer (50 mM HEPES, 100 mM KCl, 5 mM NaCl, 2 mM MgCl2/100 mL H2O). The inhibitors to be analyzed were dissolved in 100% DMSO, and the final concentration in the reaction was 1%. The reaction mixture was pre-incubated for 30 minutes at 37° C. under stirring. 40 μL of the reaction substrate, 3.2 nM [^3H]-cortisol dissolved in assay buffer were added. It was incubated at 37° C. for two hours under stirring. The stop solution was simultaneously prepared, being incubated for two hours at rt and protected from light. After this time 50 μL of the stop solution were added to end the reaction, and it was incubated for two hours at rt under stirring and protected from light. The signal emitted by SPA beads-cortisol complex was measured in the 1450 Microbeta Tritalux (Wallac®) scintillation counter for 30 seconds per well. This case measures the binding to the substrate, and not to the product as in the assay for the type 1 isoenzyme.

The target in assay [2] is T2, 11-beta-HSD1 (Homo sapiens, UniProt P28845).
T2 construct: expressed in transfected cells; host or cells: HEK-293 cells, stably transfected; microsome preparation
Nature of the assay: Inhibitory activity of 11-beta-HSD1 in the microsomal fraction of transfected HEK293 cells (SPA, [3H]-cortisone). Format: biochemical. The following applies: microsomes of HEK-293 cells transfected with 11-beta-HSD1. How it is done:
Determination of the Inhibitory Activity of 11-Beta-HSD1 in the Microsomal Fraction of Transfected HEK293 Cells
99 μL of a reaction mixture which contained 80 nM [^3H]-cortisone, 1 mM NADPH and 40 μg/mL of the microsome preparations of HEK-293 cells stably transfected with the 11-beta-HSD1 clone, dissolved in assay buffer (50 mM HEPES, 100 mM KCl, 5 mM NaCl, 2 mM MgCl2/100 mL H2O) were added to a 96-well plate. The inhibitors to be analyzed were dissolved in 100% DMSO, and the final concentration in the reaction was 1%.
The reaction mixture was incubated for 2 hours at 37° C. under stirring. The total reaction volume per well was 100 μL. The stop solution (5 mg/mL ProteinA Spa bead, Superblock Blocking Buffer, 30 μM glycyrrhetinic acid, 1 μg/mL anticortisol monoclonal antibody) was simultaneously prepared, being incubated under stirring for two hours at rt and protected from light. Once the two hours lapsed, 50 μL of the stop solution were dispensed to each well in the reaction plate and was left to incubate for two hours at rt under stirring and protected from light. Once the second incubation ended, the plate was read in a 1450 Microbeta Tritalux (Wallac®) scintillation counter for 30 seconds per well.

A short description of assay [3]: Acute glaucoma model: glucose-induced ocular hypertension in rabbit (IOP). It counts as in vivo, Chinchilla Bastard rabbits. The following applies: for Glucose-induced Hypertension Ratio Inhibitor/Timolol: 0.5% suspension versus Timolol maleate solution 0.5%; for Glucose-induced Hypertension % Inhibition: eye instillation of 0.5% suspension 15 minutes before 5% glucose bolus 20 ml/kg. The method, then: In Vivo Efficacy of 11beta-HSD1 Inhibitors
In vivo efficacy of 11beta-HSD1 inhibitors was evaluated in an acute glaucoma model based on a glucose-induced ocular hypertension model in rabbit.
Male Chinchilla Bastard rabbits (1.5-2.5 kg) were obtained from Charles River (Germany) and were kept under controlled environmental conditions (12-hour light/12-hour dark cycle) with food and drinking water ad libitum. Animals were treated in accordance with the ARVO Statement for the Use of Animals in Ophthalmic and Vision Research.
In order to measure intraocular pressure (IOP) according to the glucose-induced ocular hypertension model, rabbits were restrained and basal IOP was determined using a Tonolab tonometer (Tiolat Oy) at least 1 hour after initial immobilization. Acute ocular hypertension was induced by a bolus of 5% glucose solution at 20 ml/kg into the marginal ear vein and IOP was determined 5, 10, 20, 30 and 40 minutes later. Eye treatment instillation was performed 15 minutes before the hypertension induction and both eyes of each animal were instilled with the same solution, either the vehicle, the 11beta-HSD1 inhibitor suspension at 0.5% or Timolol maleate solution at 0.5% as a positive control.

Where “and” joins values, the source holds several entries; their conditions need not be identical. Equal entries are not always repeated.

T2 sequence (P28845 whole entry): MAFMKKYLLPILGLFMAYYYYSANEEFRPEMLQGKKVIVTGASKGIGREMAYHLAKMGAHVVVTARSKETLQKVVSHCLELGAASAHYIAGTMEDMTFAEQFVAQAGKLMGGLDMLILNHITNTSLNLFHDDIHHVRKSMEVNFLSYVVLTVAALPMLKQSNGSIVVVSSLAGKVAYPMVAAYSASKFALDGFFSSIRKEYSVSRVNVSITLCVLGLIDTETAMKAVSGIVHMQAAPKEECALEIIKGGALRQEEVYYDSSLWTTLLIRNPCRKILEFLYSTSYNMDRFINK

For orientation: inhibition means the change of the read-out against control, counted positive when it falls. Low readings indicate little suppression, high ones strong suppression. For the compound `O=C(CCCC(=O)N1CCCC2CCCCC21)NCCc1ccccc1` (centres unmarked) [Ia.59, 5-(octahydroquinolin-1-yl)-5-oxopentanoic acid phenethylamide], the values for the inhibition at 10 µM in assay [1] and in assay [2] were 0% and 100%, respectively.

With `O=C(CCCC(=O)N1CCCC2CCCCC21)NCc1ccccc1` (centres unmarked) [Ia.61, 5-(octahydroquinolin-1-yl)-5-oxopentanoic acid benzylamide], the inhibition at 10 µM in assay [1] was determined as 0%; in assay [2], 93%.

`CN(Cc1cccc2ccccc12)C(=O)CCCC(=O)N1CCCC2CCCCC21` (centres unmarked) [Ia.66, 5-(octahydroquinolin-1-yl)-5-oxopentanoic acid methylnaphthalen-1-ylmethylamide]: the results for the inhibition at 10 µM in assay [1] and in assay [2] were 6% and 100%, respectively.

In the case of `O=C(CCCCC(=O)N1CCCC2CCCCC21)NC1C2CC3CC(C2)CC1C3` (centres unmarked) [Ia.96, 6-(octahydroquinolin-1-yl)-6-oxohexanoic acid tricyclo[3.3.1.1^3,7]decan-2-ylamide], in assay [3], the “Glucose-induced Hypertension Ratio Inhibitor/Timolol” value is reported as 0.84 and the “Glucose-induced Hypertension % Inhibition” value came to 46%.

Turning to `O=C(CCCC(=O)N1CCCC2CCCCC21)NCCc1cccc(F)c1` (centres unmarked) [Ia.198, 5-(octahydroquinolin-1-yl)-5-oxopentanoic acid N-(3-fluorophenethyl)amide], in assay [3], the “Glucose-induced Hypertension Ratio Inhibitor/Timolol” value is recorded as 0.65 and the “Glucose-induced Hypertension % Inhibition” value stood at 41%.

In the case of `O=C(CCCC(=O)N1CCCC2CCCCC21)NC1CCCc2ccccc21` (centres unmarked) [Ia.224, 5-(octahydroquinolin-1-yl)-5-oxopentanoic acid N-(1,2,3,4-tetrahydronaphthalen-1-yl)amide], in assay [3], the “Glucose-induced Hypertension Ratio Inhibitor/Timolol” value is on record as 0.25 and the “Glucose-induced Hypertension % Inhibition” value came to 16%.

For `CN(Cc1cccc2ccccc12)C(=O)CCCNC(=O)N1CCCC2CCCCC21` (centres unmarked) [Ib.8, Octahydroquinoline-1-carboxylic acid [3-(methylnaphthalen-1-ylmethylcarbamoyl)propyl]amide], the “% Inhibition (10 μM) 11-beta-HSD2” value in assay [1] (microsomes of HEK-293 cells transfected with 11-beta-HSD2, 10 µM) was 0% and 5%. In assay [2], this compound came in with an inhibition at 10 µM of 100%.

With `O=C(CCCNC(=O)N1CCCC2CCCCC21)N1CCC2CCCCC2C1` (centres unmarked) [Ib.18, Octahydroquinoline-1-carboxylic acid [4-(octahydroisoquinolin-2-yl)-4-oxobutyl]amide], the inhibition at 10 µM is 10% in assay [1] and 100% in assay [2].

Regarding `CN(Cc1cccc2ccccc12)C(=O)CCCNC(=O)N1CCC2CCCCC2C1` (centres unmarked) [Ib.80, Octahydroisoquinoline-2-carboxylic acid [3-(methylnaphthalen-1-ylmethylcarbamoyl)propyl]amide], the values for the inhibition at 10 µM in assay [1] and in assay [2] were 13% and 100%, respectively.

In the case of `O=C(NCCC(=O)N1CCCC2CCCCC21)c1cc2ccccc2cn1` (centres unmarked) [Id.6, Isoquinoline-3-carboxylic acid [3-(octahydroquinolin-1-yl)-3-oxopropyl]amide], the inhibition at 10 µM in assay [1] was 0%; in assay [2], 100%.

Turning to `O=C(NCCC(=O)N1CCCC2CCCCC21)c1ccc2ccccc2n1` (centres unmarked) [Id.12, Quinoline-2-carboxylic acid[3-(octahydroquinolin-1-yl)-3-oxopropyl]amide], testing at 10 µM in assay [1] gave an inhibition of 0%. In assay [2], this compound gave an inhibition at 10 µM of 100%. In assay [3], the “Glucose-induced Hypertension Ratio Inhibitor/Timolol” value was 0.87 and the “Glucose-induced Hypertension % Inhibition” value is recorded as 50%.

On to `O=C1c2ccccc2C(=O)N1CCCCC(=O)N1CCCC2CCCCC21` (centres unmarked) [If.1, 2-(5-(octahydroquinolin-1-yl)-5-oxopentyl)isoindoline-1,3-dione], for which at 10 µM the inhibition in assay [1] was 0%. Besides, 10 µM produced 100% inhibition in assay [2]. Further, in assay [3], the “Glucose-induced Hypertension Ratio Inhibitor/Timolol” value turned out to be 0.90 and the “Glucose-induced Hypertension % Inhibition” value was 51%.

Regarding `O=C(CCCCN1C(=O)c2ccccc2C1=O)N1CCC2CCCCC2C1` (centres unmarked) [If.8, 2-(5-(octahydroisoquinolin-2-yl)-5-oxopentyl) isoindoline-1,3-dione], the inhibition at 10 µM in assay [1] worked out at 4%; in assay [2], 100%.

On to `O=C1c2ccc(F)cc2C(=O)N1CCCCC(=O)N1CCCC2CCCCC21` (centres unmarked) [Ik.25, 5-fluoro-2-[5-(octahydroquinolin-1-yl)-5-oxopentyl]isoindole-1,3-dione], for which the inhibition at 10 µM came out at 6% in assay [1] and 100% in assay [2].
